Source: US20030083325A1, “Serotonin antagonists” (priority 1992, published 2003)
Counter-ions that a name gives are not always drawn.

Target: T1, 5HT2 receptor (Rattus norvegicus, UniProt P14842)
T1 construct: from tissue
Assay: spiroperidol binding test (5HT2 binding affinity)
Details: [3H] spiroperidol binding; concentration of compound at 50% inhibition
Source text: As noted above, the compounds of Formula I are serotonin 5HT2 antagonists. […] In this test, 5HT2 receptors are exposed to both [^3H] spiroperidol, (a substance known to have a specific affinity for the receptor) and the test compound. The extent to which there is a decrease in binding of the [^3H] spiroperidol to the receptor is indicative of the affinity of the test compound for the 5HT2 receptor.
d) any reference to “5HT2 binding affinity” refers to the spiroperidol binding test as described by Peroutka et al., in Mol.Pharmacol., Vol. 16, pages 687-699 (1979).

T1 sequence (P14842 whole entry): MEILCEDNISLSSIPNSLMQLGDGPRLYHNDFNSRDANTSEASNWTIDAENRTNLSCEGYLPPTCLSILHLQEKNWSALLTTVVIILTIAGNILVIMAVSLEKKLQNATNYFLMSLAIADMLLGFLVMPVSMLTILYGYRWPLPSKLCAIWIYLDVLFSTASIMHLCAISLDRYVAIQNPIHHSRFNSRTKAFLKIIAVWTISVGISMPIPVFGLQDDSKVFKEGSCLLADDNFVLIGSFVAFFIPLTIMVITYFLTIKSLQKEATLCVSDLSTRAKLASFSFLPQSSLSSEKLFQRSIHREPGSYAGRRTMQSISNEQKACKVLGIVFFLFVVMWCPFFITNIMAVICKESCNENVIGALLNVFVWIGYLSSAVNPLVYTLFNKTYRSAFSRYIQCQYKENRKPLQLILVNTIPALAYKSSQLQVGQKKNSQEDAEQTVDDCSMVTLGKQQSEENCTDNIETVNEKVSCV

| SMILES | IC50 [nM] |
| --- | --- |
| O=C(CN1CCC(CN2C(=O)[C@@H]3CCCC[C@H]3C2=O)CC1)c1ccc(F)cc1 (relative stereo) [Example 5, trans-2-[[1-[2-(4-fluorophenyl)-2-oxoethyl]-4-piperidinyl]methyl]hexahydro-1H-isoindole-1,3(2H)-dione monohydrochloride] | 76 |
| O=C(CN1CCC(CN2C(=O)C3C4C=CC(CC4)C3C2=O)CC1)c1ccc(F)cc1 (stereo not drawn) [Example 1, 2-[[1-[2-(4-fluorophenyl)-2-oxoethyl]-4-piperidinyl]methyl]-3a,4,7,7a-tetrahydro-4,7-ethano-1H-isoindole-1,3(2H)-dione monohydrochloride] | 48 |
| O=C(CN1CCC(CN2C(=O)c3ccccc3C2=O)CC1)c1ccc(F)cc1 [Example 2, 2-[[1-[2-(4-fluorophenyl)-2-oxoethyl]-4-piperidinyl]methyl]-1H-isoindole-1,3(2H)-dione] | 13 |
| O=C(CN1CCC(CN2C(=O)C3CC=CCC3C2=O)CC1)c1ccc(F)cc1 (stereo not drawn) [Example 3, 2-[[1-[2-(4-fluorophenyl)-2-oxoethyl]-4-piperidinyl]methyl]-3a,4,7,7a-tetrahydro-1H-isoindole-1,3(2H)-dione monohydrohydrochloride] | 206 |
| O=C(CN1CCC(CN2C(=O)[C@H]3CCCC[C@H]3C2=O)CC1)c1ccc(F)cc1 [Example 4, cis-2-[[1-[2-(4-fluorophenyl)-2-oxoethyl]-4-piperidinyl]methyl]hexahydro-1H-isoindole-1,3(2H)-dione monohydrochloride] | 162 |
| O=C(CN1CCC(CN2C(=O)C3C4C=CC(C4)C3C2=O)CC1)c1ccc(F)cc1 (stereo not drawn) [Example 6, 2-[[1-[2-(4-fluorophenyl)-2-oxoethyl]-4-piperidinyl]methyl]-3a,4,7,7a-tetrahydro-4,7-methano-1H-isoindole-1,3(2H)-dione monohydrochloride] | 172 |
| O=C(CN1CCC(CN2C(=O)C(c3ccccc3)=C(c3ccccc3)C2=O)CC1)c1ccc(F)cc1 [Example 7, 1-[[1-[2-(4-fluorophenyl)-2-oxoethyl]-4-piperidinyl]methyl]-3,4-diphenyl-1H-pyrrole-2,5-dione monohydrohydrochloride] | 307 |
| Cc1ccc2c(c1)C(=O)N(CC1CCN(CC(=O)c3ccc(F)cc3)CC1)C2=O [Example 8, 2-[[1-[2-(4-fluorophenyl)-2-oxoethyl]-4-piperidinyl]methyl]-5-methyl-1H-isoindole-1,3(2H)-dione monohydrochloride] | 116 |
| O=C(CN1CCC(CN2C(=O)c3cccc4cccc(c34)C2=O)CC1)c1ccc(F)cc1 [Example 9, 2-[[1-[2-(4-fluorophenyl)-2-oxoethyl]-4-piperidinyl]methyl]-1H-benz[de]isoquinoline-1,3(2H)-dione monohydrochloride] | 96 |
| O=C(CN1CCC(CN2C(=O)c3ccccc3C2=O)CC1)c1ccccc1 [Example 10, 2-[[1-[2-phenyl-2-oxoethyl]-4-piperidinyl]methyl]-1H-isoindole-1,3(2H)-dione monohydrochloride] | 13 |
| O=C(CN1CCC(CN2C(=O)c3cccc(F)c3C2=O)CC1)c1ccc(F)cc1 [Example 11, 2-[[1-[2-(4-fluorophenyl)-2-oxoethyl]-4-piperidinyl]methyl]-4-fluoro-1H-isoindole-1,3(2H)-dione monohydrochloride] | 33 |
| O=C(CN1CCC(Cn2c(=O)[nH]c3ccccc3c2=O)CC1)c1ccc(F)cc1 [Example 12, 2-[[1-[2-(4-fluorophenyl)-2-oxoethyl]-4-piperidinyl]methyl]-benzoyleneurea] | 14.9 |

Tested on: thrombus formation
Assay: not given
Details: canine models; cited from earlier work

| SMILES | prevention of thrombus formation |
| --- | --- |
| O=C(c1ccc(F)cc1)C1CCN(CCn2c(=O)[nH]c3ccccc3c2=O)CC1 [Ketanserin] | extremely effective in preventing thrombus formation |

Tested on: coronary vessel constriction
Assay: not given
Details: patients with stable angina; cited from earlier work

| SMILES | coronary vessel constriction |
| --- | --- |
| O=C(c1ccc(F)cc1)C1CCN(CCn2c(=O)[nH]c3ccccc3c2=O)CC1 [Ketanserin] | blocked coronary vessel constriction |

Tested on: preference for alcohol and cocaine
Assay: not given
Details: rodent model of drug abuse; cited from earlier work

| SMILES | preference for alcohol and cocaine |
| --- | --- |
| Cc1nc2sccn2c(=O)c1CCN1CCC(=C(c2ccc(F)cc2)c2ccc(F)cc2)CC1 [ritanserin] | abolished the preference for both alcohol and cocaine |
